Measured values: the supplement of paper PMC10307832

Columns and labels:
Experiment in all cases: relative viability (nuclei count vs DMSO), 5 days (fraction); higher = more cells survive
[1] = compound: C(C(=O)C(=O)O)Br [Bromopyruvate] + Cc1nc(NC(=O)N2CCC[C@H]2C(N)=O)sc1-c1ccnc(C(C)(C)C(F)(F)F)c1 [Alpelisib] (partner 2 µM)
Outline: (§1)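 Lung cancer cell lines were seeded in 1536-well plates and dosed by pin tool the next day, with either a single drug or a fixed anchor-drug dose combined with five library-drug doses (not always all listed) spaced in √10 steps. Five days later, one step fixed the cells and stained their nuclei (final 0.05% Triton X-100, 1% formaldehyde, 1 ug/ml Hoechst), and nuclei were counted on 4× images. Relative viability is the nuclei count in treated wells divided by the count in vehicle wells, and each value is the median of duplicate plates.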

[2] = compound: CC(O)(CS(=O)(=O)c1ccc(F)cc1)C(=O)Nc1ccc(C#N)c(C(F)(F)F)c1 [Bicalutamide] + CC(=O)c1c(C)c2cnc(Nc3ccc(N4CCNCC4)cn3)nc2n(C2CCCC2)c1=O [Palbociclib] (partner 0.5 µM)
Outline: as §1

Bicalutamide + AZD7762 = compound: CC(O)(CS(=O)(=O)c1ccc(F)cc1)C(=O)Nc1ccc(C#N)c(C(F)(F)F)c1 [Bicalutamide] + NC(=O)Nc1cc(-c2cccc(F)c2)sc1C(=O)N[C@H]1CCCNC1 [AZD7762] (partner 0.2 µM)
Outline: as §1

[3] = compound: CC(O)(CS(=O)(=O)c1ccc(F)cc1)C(=O)Nc1ccc(C#N)c(C(F)(F)F)c1 [Bicalutamide] + CC(C)C[C@H](NC(=O)[C@H](Cc1ccccc1)NC(=O)c1cnccn1)B(O)O [Bortezomib] (partner 0.002 µM)
Outline: as §1

Row | Cell Line | relative viability ([1]; first compound 1 µM) | relative viability ([1]; first compound 3.162 µM) | relative viability ([1]; first compound 10 µM) | relative viability ([1]; first compound 31.62 µM) | relative viability ([1]; first compound 100 µM) | relative viability ([2]; first compound 0.08 µM) | relative viability ([2]; first compound 0.8 µM) | relative viability ([2]; first compound 2.53 µM) | relative viability (Bicalutamide + AZD7762; first compound 0.08 µM) | relative viability (Bicalutamide + AZD7762; first compound 0.8 µM) | relative viability (Bicalutamide + AZD7762; first compound 2.53 µM) | relative viability ([3]; first compound 0.08 µM) | relative viability ([3]; first compound 0.253 µM) | relative viability ([3]; first compound 0.8 µM) | relative viability ([3]; first compound 2.53 µM) | relative viability (Bicalutamide + AZD7762; first compound 0.253 µM) | relative viability ([2]; first compound 0.253 µM)
1 | NCI-H1793 | 0.659 | 0.715 | 0.751 | 0.697 | 0.702 | 0.265 | 0.423 | 0.382 | 0.705 | 0.432 | 0.282 |  |  |  |  |  | 
2 | NCI-H596 | 0.435 | 0.47 | 0.551 | 0.477 | 0.491 |  |  |  | 1.13 | 1.08 | 1.11 | 1.19 | 1.11 | 1.01 | 1.04 | 1.04 | 
3 | A549 | 0.814 | 0.971 | 0.834 | 0.794 | 0.726 |  |  |  |  |  |  |  |  |  |  |  | 
4 | NCI-H520 | 0.844 | 1.08 | 0.884 | 0.896 | 0.875 | 0.188 | 0.286 | 0.226 |  |  |  | 0.576 | 0.391 | 0.96 | 0.432 |  | 0.185
5 | NCI-H358 | 0.812 | 1.08 | 0.819 | 0.69 | 0.721 | 0.147 | 0.14 | 0.125 | 0.562 | 0.64 | 0.547 |  |  |  |  | 0.489 | 0.141
6 | NCI-H1563 | 0.984 | 1.02 | 0.825 | 0.978 | 0.809 |  |  |  |  |  |  | 0.973 | 0.775 | 0.885 | 0.767 |  | 
7 | NCI-H1395 | 1.02 | 1.46 | 1.26 | 1.06 | 0.991 | 0.645 | 0.639 | 0.568 | 0.402 | 0.394 | 0.377 |  |  |  |  | 0.399 | 0.624
8 | NCI-H2228 | 0.656 | 0.866 | 0.806 | 0.698 | 0.631 | 0.797 | 0.745 | 0.779 |  |  |  | 1.07 | 1.11 | 1.31 | 1.11 |  | 0.775
9 | NCI-H2023 | 0.613 | 0.728 | 0.593 | 0.646 | 0.542 | 0.406 | 0.408 | 0.286 |  |  |  | 1.09 | 0.932 | 1.11 | 0.8 |  | 0.373
10 | SW 900 |  |  |  |  |  | 0.602 | 0.529 | 0.511 | 0.707 | 0.745 | 0.586 |  |  |  |  | 0.645 | 0.596
11 | IA-LM | 0.756 | 0.776 | 0.887 | 0.836 | 0.821 |  |  |  |  |  |  | 0.819 | 0.86 | 0.966 | 0.837 |  | 
12 | SW 1573 | 0.761 | 0.84 | 0.876 | 0.678 | 0.761 | 0.418 | 0.457 | 0.351 |  |  |  | 1.05 | 0.842 | 1.25 | 0.912 |  | 0.451
13 | NCI-H1703 | 0.364 | 0.347 | 0.294 | 0.345 | 0.33 |  |  |  | 0.123 | 0.162 | 0.174 | 0.374 | 0.427 | 0.317 | 0.204 | 0.117 | 
14 | NCI-H1648 |  |  |  |  |  |  | 0.317 | 0.254 |  | 0.736 | 0.686 |  |  |  |  |  | 
